# Assay results published in US20220135564A1, “DEUTERATED MITRAGYNINE ANALOGS AS SAFER OPIOID MODULATORS IN THE MITRAGYNINE CLASS” (The Trustees of Columbia University in the City of New York, priority 2019, published 2022).
# Experiments:
# [1] = Mouse brain homogenate (MBH) stability and metabolite formation; assay type: in vitro ADME; conditions: 2 μM, 37° C., over 120 minutes
# Procedure: MBH Preparation. Male BALB/c mice (12-14 weeks old) were housed in polypropylene cages with free access to standard commercial food pellets and tap water. Animals were sacrificed by cervical dislocation immediately prior to brain homogenate preparation. Brains from 10 mice were fragmented into small pieces and homogenized in ice-cold artificial cerebrospinal fluid solution (ACSF: 126 mM NaCl, 2.68 mM KCl, 1 mM Na2HPO4, 0.88 mM MgSO4, 22 mM NaHCO3, 1.45 mM CaCl2, 10 mM HEPES, 11 mM D-glucose, pH 7.4) using a TH-01 OMNI homogenizer. Samples were centrifuged at 1500×g for 10 minutes. Supernatants were decanted and collected. Total protein concentration was determined by Bradford assay and equaled 17.7 mg/mL. The obtained brain homogenate was flash-frozen in liquid nitrogen. Aliquots were stored at −70° C. until use.
# MBH Stability and Metabolite Formation. […] The incubation medium consisted of artificial cerebrospinal fluid solution (ACSF: 126 mM NaCl, 2.68 mM KCl, 1 mM Na2HPO4, 0.88 mM MgSO4, 22 mM NaHCO3, 1.45 mM CaCl2, 10 mM HEPES, 11 mM D-glucose, pH 7.4) with 2 mg of brain protein per mL. Test compounds (2 μM, final solvent concentration 1%) were incubated with brain homogenate at 37° C., shaking at 100 rpm. Incubations were performed in duplicate. Six time points over 120 minutes were analyzed.
# [2] = MS9 metabolite formation (M1, M4, M6) from mitragynine and 3-DM; assay type: in vitro ADME, mouse; conditions: 2 μM, 37° C., over 60 minutes, MS peak area, compared to mitragynine
# Procedure: MS9 Metabolite Formation. Liver S9 fraction pooled from male CD-1 mice was used. […] Control incubations were performed replacing the cofactor system with phosphate buffer. […] Incubations were performed in duplicate. Five time points over 60 minutes were analyzed. […] Supernatants were analyzed for remaining parent compound and metabolites by liquid chromatography-tandem mass spectrometry (LC-MS/MS).
# [3] = Pharmacokinetics in C57BL/6 mice, plasma and brain metabolite concentrations; conditions: male C57BL/6 mice, 10 mg/kg s.c., 0.083-24 h
# Procedure: Animals. Healthy male C57BL/6 mice (8-12 weeks old) weighing between 19 to 28 g were procured from Global, India. Four mice were housed in each cage. Temperature and humidity were maintained at 22±3° C. and 30-70%, respectively and illumination was controlled on a 12-h light/dark cycle. Temperature and humidity were recorded by an auto-controlled data logger system. All animals were provided a laboratory rodent diet (Envigo Research Private Ltd, Hyderabad, India) and reverse osmosis water treated with ultraviolet light was provided ad libitum.
# Drugs. Mitragynine and 3-DM were dissolved in normal saline made slightly acidic (˜pH 3) with 1M aqueous HCl. Drugs were administered subcutaneously at a volume of 10 mL/kg body weight and a dose of 10 mg/kg.
# Pharmacokinetics. Blood samples (approximately 60 μL) were collected under light isoflurane anesthesia from the retro orbital plexus at 0.083, 0.25, 0.5, 1, 2, 4, 8 and 24 h (4 animals per time point). Plasma samples were separated by centrifugation of whole blood and stored below −70° C. until bioanalysis. Immediately after collection of blood, mice were euthanized and brain samples were collected at 0.083, 0.25, 0.5, 1, 2, 4, 8 and 24 h (4 animals per time point). Brain samples were homogenized using ice-cold phosphate buffered saline (pH 7.4) and homogenates were stored below −70° C. until analysis. Total homogenate volume was three times the tissue weight. Aliquots (25 μL) of each study sample (dilution factor applied for several samples) or spiked calibration standard were added to individual micro-centrifuge tubes followed by 100 μL of internal standard solution prepared in acetonitrile (Glipizide, 500 ng/mL; except for blank, where 100 μL of acetonitrile was added). Samples were vortexed for 5 minutes and then centrifuged for 5 minutes at a speed of 4000 rpm at 4° C. Following centrifugation, supernatants were analyzed for metabolites DHM (both mitragynine and 3-DM treatment) and 7-OH (mitragynine treatment) or 3-d-7-OH (3-DM treatment), using a fit-for-purpose liquid chromatography-tandem mass spectrometry (LC-MS/MS) method, with authentic samples of each analyte used for calibration and identification.
# [4] = HLM metabolite formation; conditions: 2 μM, 37° C., over 40 minutes
# Procedure: HLM Metabolite Formation. Pooled HLM from 50 adult male and female donors (XenoTech H0630, lot 1610016) were used. Microsomal incubations of mitragynine and 3-DM were carried out in 96-well plates in 5 aliquots of 40 μL each (one for each time point). Liver microsomal incubation medium contained PBS (100 mM, pH 7.4), MgCl2 (3.3 mM), NADPH (3 mM), glucose-6-phosphate (5.3 mM), glucose-6-phosphate dehydrogenase (0.67 units/mL) with 0.42 mg of liver microsomal protein per ml. Control incubations were performed replacing the NADPH-cofactor system with PBS. Test compounds (2 μM, final solvent concentration 1.6%) were incubated with microsomes at 37° C., shaking at 100 rpm. Incubations were performed in duplicate. Five time points over 40 minutes were analyzed. The reactions were stopped by adding 8 volumes of 90% acetonitrile-water to incubation aliquots, followed by protein sedimentation by centrifugation at 5500 rpm for 3 minutes. Supernatants were analyzed for parent compound remaining and metabolites DHM (both mitragynine and 3-DM incubations), 7-OH (mitragynine incubations), and 3-d-7-OH (3-DM incubations), using a fit-for-purpose liquid chromatography-tandem mass spectrometry (LC-MS/MS) method, with authentic samples of each analyte used for calibration and identification.
# [5] = Pharmacokinetics in 129S1 mice, brain metabolite concentrations at 15 minutes; conditions: male 129S1 mice, 10 mg/kg s.c.
# [6] = test system: Male Sprague-Dawley rats; assay: Rat tail-flick assay (analgesic activity); assay type: in vivo; conditions: oral gavage, 50° C. hot-water bath, 30 minutes after administration
# Procedure: Animals. Male Sprague-Dawley rats, aged 7-8 weeks, were used in experiments. Animals were housed under controlled temperatures and 12-hour light/dark cycles (lights on at 06:00-18:00 h), with ad libitum food and water. The study was approved by the Institutional Animal Care and Use Committee (IACUC) at WuXi AppTec (Shanghai). WuXi's animal facilities and IACUC are fully accredited by the Association for Assessment and Accreditation of Laboratory Animal Care International (AAALAC). All efforts were made to minimize animal suffering.
# Drugs and Drug Administration. Drugs were prepared as described above and administered by oral gavage at a volume of 5 mL/kg in de-ionized water acidified with acetic acid.
# Tail-Flick. Analgesic activity was assessed in the tail-flick assay 30 minutes (peak effect) after administration of vehicle and each dose of drug (n=8 per treatment). Animals were tested for their latency to withdraw their tails from a hot water bath maintained at 50° C. with a room temperature of 22° C. A cutoff time of 7 seconds was used to prevent tissue damage. Data were analyzed as percent maximal effect, % MPE, which was calculated according to the formula: % MPE=[(observed latency−vehicle latency)/(maximal latency−vehicle latency)]×100. Dose-response curves were fit by nonlinear regression (GraphPad Prism, La Jolla, Calif.).
# [7] = Simulated gastric fluid (SGF) incubations monitored by NMR; assay type: physicochemical; conditions: deuterated SGF, 1.3 mg/mL, room temperature
# Procedure: SGF Incubations. Deuterated SGF (to permit direct NMR monitoring of the reactions) was prepared by combining NaCl (10 mg) and 37% DCl in D2O (35 μL) and diluting up to a final volume of 5.0 mL with D2O. Solutions of 7-OH and 3-d-7-OH in deuterated SGF were prepared at a concentration of 1.3 mg/mL containing N-methyl-2-pyrrolidone (NMP) as an internal standard (IS) at a concentration of 3.33 μL/mL and the reaction mixtures were left to stand at room temperature. NMR spectra were recorded on a Bruker 500 MHz instrument at the following time points: 35, 65, 125, 245, 365, and 1440 minutes (relative to time of solution mixing). Chemical shifts were referenced to the D2O residual solvent peak at 4.79 ppm. Decomposition of parent compounds was quantified by the peak area ratio of a doublet at 6.63 ppm (corresponding to 7-OH and 3-d-7-OH) and a singlet at 2.84 ppm (corresponding to IS). These ratios, calculated at each time point, were normalized to the ratio determined at 35 minutes to obtain values as percent remaining (100% at 35 minutes). Concentration of DHM was determined at each time point by comparing the peak areas of a doublet at 6.70 ppm (corresponding to DHM) and a singlet at 2.84 ppm (corresponding to IS) and using the known concentration of internal standard (3.33 μL/mL=34.5 mM). The concentration of DHM formed from 3-d-7-OH was below the lower limit of quantitation of -0.1 mM at the 35-, 65-, and 125-minute time points.
# [8] = Stability and metabolite formation in dog plasma; assay type: in vitro ADME; conditions: 1 μM, 37° C., over 120 minutes
# Procedure: Stability and Metabolite Formation in Dog Plasma. Beagle dog plasma with Na citrate (Innovatine Research, Inc., lot #IBG-NaCitrate-28323) was used in this study. Plasma incubations were carried out in 5 aliquots of 70 μL each (one for each time point), in duplicate. Test compounds (1 μM, final DMSO concentration 1%) were incubated at 37° C. with shaking at 100 rpm. Five time points over 120 minutes were analyzed. The reactions were stopped by adding 400 μL of acetonitrile-methanol mixture (1:1) with subsequent plasma protein sedimentation by centrifugation at 5500 rpm for 5 minutes.
# [9] = compared to 7-OH from mitragynine
# [10] = 35-1440 minutes, compared to 7-OH
compound,measurement,setting,value
"[2H][C@@]12C[C@H](/C(=C\OC)C(=O)OC)[C@H](CC)CN1CCc1c2[nH]c2cccc(OC)c12 [3-DM, 3-Deuteromitragynine]",decomposition of parent compound in MBH,[1],attenuated the decomposition
same,formation of DHM in MBH,[1]; compared to mitragynine,attenuated formation of DHM
same,formation of metabolite M1 in MS9,[2],greatly attenuated
same,formation of metabolite M4 in MS9,[2],greatly attenuated
same,formation of metabolite M6 in MS9,[2],greatly attenuated
same,brain concentration of active metabolite 3-d-7-OH,[3]; [9],no effect
same,plasma concentration of active metabolite 3-d-7-OH,[3]; [9],no effect
same,brain concentration of DHM,[3]; compared to mitragynine,greatly attenuated
same,plasma concentration of DHM,[3]; compared to mitragynine,greatly attenuated
same,formation of 7-hydroxy active metabolite (3-d-7-OH) in HLMs,[4]; [9],little effect
same,concentration of toxic metabolite DHM formed in HLMs,[4]; compared to mitragynine,greatly attenuated
same,brain concentration of 7-hydroxy active metabolite (3-d-7-OH),[5]; [9],little effect
same,brain concentration of DHM,[5]; compared to mitragynine,greatly attenuated
same,analgesic effect in the tail-flick assay,[6],dose-dependent analgesic effects
"[2H][C@@]12C[C@H](/C(=C\OC)C(=O)OC)[C@H](CC)CN1CC[C@@]1(O)C2=Nc2cccc(OC)c21 [3-d-7-OH, 3-Deutero-7-hydroxymitragynine]",decomposition of parent compound in SGF,[7]; [10],did not slow decomposition
same,formation of toxic metabolite DHM in SGF,[7]; [10],greatly attenuated
same,concentration of DHM formed in SGF,"[7]; 35-, 65-, and 125-minute time points, below lower limit of quantitation",< -100 µM
same,decomposition of parent compound in dog plasma,[8],attenuated the decomposition
same,formation of DHM in dog plasma,[8]; compared to 7-OH,attenuated formation of DHM
"CC[C@@H]1CN2CC[C@@]3(O)C(=Nc4cccc(OC)c43)[C@@H]2C[C@@H]1/C(=C\OC)C(=O)OC [7-OH, 7-Hydroxymitragynine, reference compound]",decomposition of parent compound in dog plasma,[8],unstable
CC[C@@H]1CN2CCc3c([nH]c4cccc(OC)c34)[C@@H]2C[C@@H]1/C(=C\OC)C(=O)OC [Mitragynine],decomposition of parent compound in MBH,[1],unstable
same,analgesic effect in the tail-flick assay,[6],dose-dependent analgesic effects
